The results in this text go back to patent publication US6950754B2, “Apparatus and method for automated protein design” (The California Institute of Technology, priority 1997, dated 2005).

No end group written: not given here.

A short description of data set [1]: Thermal melts monitored by circular dichroism at 222 nm (coiled coil peptides). The class given is physicochemical. As to conditions: surface designs on GCN4-p1, pH 7.0, 40 μM. A general note: Circular dichroism is the unequal absorption of left and right circularly polarised light.
Method: A 1 mm pathlength cell was used and the temperature was controlled by a thermoelectric unit. Thermal melts were performed in the same buffer using two degree temperature increments with an averaging time of 10 s and an equilibration time of 90 s. […] Peptide concentrations were determined from the tyrosine absorbance at 275 nm (Huyghues-Despointes, et al., supra).
Data set [2] in a line: Size exclusion chromatography, oligomerization state (coiled coil peptides). As to conditions: pH 7.0, 0° C. The class given is physicochemical. For orientation: Size exclusion chromatography separates by hydrodynamic size, large species first.
Method: Size exclusion chromatography: Size exclusion chromatography was performed with a Synchropak GPC 100 column (25 cm by 4.6 mm) at pH 7.0 in 50 mM phosphate and 150 mM NaCl at 0° C. […] 10 μl injections of 1 mM peptide solution were chromatographed at 0.20 ml/min and monitored at 275 nm. Peptide concentrations were approximately 60 μM as estimated from peak heights. Samples were run in triplicate.
Size exclusion chromatography was performed with a PolyLC hydroxyethyl A column (20 cm×9 mm) at pH 7.0 in 50 mM phosphate and 150 mM NaCl at 0° C. […] 5 μl injections of ˜1 mM peptide solution were chromatographed at 0.50 ml/min and monitored at 214 nm. Samples were run in triplicate.
Data set [3] can be described thus: Circular dichroism spectra, ellipticity at 222 nm and helical content (coiled coil peptides). The class given is physicochemical. The settings on record: 1° C., 40 μM.
Method: Circular dichroism CD spectra were measured on an Aviv 62DS spectrometer at pH 7.0 in 50 mM phosphate, 150 mM NaCl and 40 μM peptide. A 1 mm pathlength cell was used and the temperature was controlled by a thermoelectric unit.
Circular dichroism spectroscopy (CD) was used to assay the secondary structure and thermal stability of the designed peptides.
The secondary structures and thermal stabilities of the peptides were assessed by circular dichroism (CD) spectroscopy.
The format of data set [4] is physicochemical. The settings on record: pH 5.5.

Take “Ac-RMAALEAKVAALLAKNAALEAEVAALKALVGER-NH2 [6F]”: the Tm in data set [1] was determined as 73 °C.
In the case of “Ac-RMARLEAKVAALLAKNRRLEREVARLKALVGER-NH2 [6C]”, in data set [1], the Tm is 69 °C. The “N (oligomerization state)” value in data set [2] worked out at 2.
In the case of “Ac-RMEKLEDKVRELLRKNRRLEEEVRRLKELVGER-NH2 [6A]”, the Tm in data set [1] was found to be 71 °C. Besides, the “N (oligomerization state)” value in data set [2] came to 2.
For “Ac-RMEKLEQKVKELLRKNERLEEEVERLKQLVGER-NH2 [6B]”, in that order: 72 °C and 2.
For “Ac-RMNTLERKVAKLLSKNANLEHEVNTLKQLVGER-NH2 [6E]”, the Tm in data set [1] came out at 15 °C. Moreover, the “[θ]222” value in data set [3] is −12000 deg cm^2/dmol. In addition, the “N (oligomerization state)” value in data set [2] is reported as 2.
Consider “Ac-RMRELEEKVRRLLRKNEDLEREVKRLKELVGER-NH2 [6D]”, for which the Tm in data set [1] amounted to 71 °C. In addition, the “N (oligomerization state)” value in data set [2] is on record as 2.
The substance “MTWKYIINGKTLKGETTTEIVDAATFEKVWKQYLNDNGIDGEFTYDDATKTLTITE [α70]” came in with a limited solubility in data set [4] of 100 µM.
